The target in test [1] is T1, FimH lectin domain (Escherichia coli, UniProt P08191). The test can be described thus: biochemical. The class given is binding, E. coli strain J96.
Test [2] concerns the target T1, FimH lectin domain. To be noted: read-out: Kd SPR; solution affinity by SPR; cited from earlier work.
The target of a further test is FimH. The following applies: Tables 1-3; read-out: Kd ITC (converted); cited from earlier work.
For test [3], the target named is T1, FimH lectin domain. In words: SPR direct binding of FimH to receptor immobilized on sensor chip (steady state affinity). To be noted: Ss: steady state affinity (Kd), direct binding of FimH to 5b coupled to CM5 sensor chip. Details: species or system E. coli strain J96.
Method: The equilibrium dissociation constant Kd of FimH for the mannose derivatives was determined using a competition assay in solution. In this assay, the mannose derivatives compete with an immobilized Fab fragment from the monoclonal anti-FimH antibody 1C10 or with an immobilized 8-aminooctyl α-D-mannopyranoside (5b) for FimH binding, as described earlier [34]. The global kinetic constants ka, kd and Rmax of the FimH-ligand interaction of binding were fitted using the BiaEval software.

Several values for one entry are separate records, joined by “and”; a condition that tells them apart may be missing. Identical values can stand only once. Like-named read-outs stand apart in the source and are kept apart here.

T1 sequence (P08191 22-179 limits assumed): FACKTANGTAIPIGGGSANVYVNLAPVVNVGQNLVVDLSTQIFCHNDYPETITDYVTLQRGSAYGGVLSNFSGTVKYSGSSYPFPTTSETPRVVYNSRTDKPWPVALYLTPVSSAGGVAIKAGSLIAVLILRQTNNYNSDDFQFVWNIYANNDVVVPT

Turning to `CCCCCCCO[C@H]1O[C@H](CO)[C@@H](O)[C@H](O)[C@@H]1O` [Compound 5, heptyl α-D-mannopyranoside, reference compound], the “KA” value on FimH lectin domain [1] (Figure S19, fit of solution affinity model to inhibition curve) turned out to be 231691100 M⁻¹. The dissociation constant (Kd) at FimH lectin domain [1] (KD(M), Figure S19, fit of solution affinity model to inhibition curve) was 4.32e-09 M; at FimH lectin domain [2] it was 4.3 ± 0.3 nM; on FimH it was 7.3 nM.

For `NCCCCCCCCO[C@H]1O[C@H](CO)[C@@H](O)[C@H](O)[C@@H]1O` [Compound 5b, 8-aminooctyl α-D-mannopyranoside], the Kd was 1.8e-08 ± 4e-10 M on FimH lectin domain [1] (Kd SPR (nM), solution affinity by SPR competition, Tables 1-3); 16.9 nM and 17 nM on FimH lectin domain [3].

Source of the values: PMC6152123, “Sites for Dynamic Protein-Carbohydrate Interactions of O- and C-Linked Mannosides on the E. coli FimH Adhesin” (Molecules : A Journal of Synthetic Chemistry and Natural …, 2017).
